Laboratory results as given in patent US20250032524A1, “BROAD SPECTRUM AMINOGLYCOSIDES AND USES THEREOF” (REVAGENIX, INC., priority 2022, published 2025).
Read-outs that look alike come from different tables or passages of the source.

Key:
Type in all cases: cell-based
[1] = tested on: A. baumannii; assay: MIC broth microdilution (CLSI); settings: Acinetobacter baumannii
How it was run: (§1)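 2-fold serially diluted compound in cation-adjusted MHB, inoculated at 5×10^5 CFU/mL from 0.5 McFarland suspensions. Incubation: 35° C., ambient air, 18-24 hours. Endpoint: no visible growth (OD 600 nm<0.05); assay controlled with CLSI quality-control strains and neomycin.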

[2] = tested on: E. cloacae; assay: MIC broth microdilution (CLSI); settings: Enterobacter cloacae; strain AECL1089, MDR Clinical isolate (CDC CRE panel), CDC AR Bank 0154
How it was run: as §1

[3] = tested on: E. coli; assay: MIC broth microdilution (CLSI); settings: Escherichia coli
How it was run: as §1

[4] = tested on: K. pneumoniae; assay: MIC broth microdilution (CLSI)
How it was run: as §1

[5] = tested on: P. aeruginosa; assay: MIC broth microdilution (CLSI); settings: Pseudomonas aeruginosa
How it was run: as §1

[6] = tested on: S. aureus; assay: MIC broth microdilution (CLSI); settings: for MIC: Staphylococcus aureus
How it was run: as §1

[7] = tested on: A. baumannii-calcoaceticus; assay: Antibacterial surveillance of clinical isolates (MIC50/90); settings: 100 isolates
Protocol: (§2) Minimum inhibitory concentrations for representative example compounds herein were determined by a broth microdilution method in accordance with the Clinical and Laboratory Standards Institute (CLSI) guidelines. In brief, organism suspensions were adjusted to a 0.5 McFarland standard to yield a final inoculum between 3×10^5 and 7×10^5 colony-forming units (CFU)/mL. The inoculum was prepared by suspension of a colony from an agar plate that was prepared the previous day. Compound dilutions and inoculum were prepared in sterile, cation adjusted Mueller-Hinton Broth (Beckton Dickinson).
(§3) Bacteria were suspended in sterile saline and added to each assay plate to obtain a final concentration of 5×10^5 CFU/mL. An inoculum volume of 100 μL was added to wells containing 100 μL of broth with 2-fold serial dilutions of the test compound. All inoculated microdilution trays were incubated in ambient air at 35° C. for 18-24 hours. Following incubation, the lowest concentration of the compound that prevented visible growth (OD 600 nm<0.05) is recorded was the MIC. […] Performance of the assay was monitored by the use of laboratory quality-control strains and a standard compound with a defined MIC spectrum (neomycin), in accordance with CLSI guidelines.
(§4) Several compounds of the disclosure (Compound 1, 2, and 3) were further evaluated against several hundred bacterial isolates (isolated in the United States and Europe, 1:1) selected from the SENTRY Antimicrobial Surveillance Program (JMI Laboratories, North Liberty, Iowa). The set of clinical isolates included 300 randomly selected Enterobacterales, 103 randomly selected P. aeruginosa, 100 randomly selected A. baumannii-calcoaceticus, 20 randomly selected Methicillin-sensitive S. aureus (MSSA), and 30 randomly selected Methicillin-resistant S. aureus (MRSA). In addition, 101 Enterobacterales and 50 P. aeruginosa isolates with genetically defined mechanisms of aminoglycoside resistance were included. The MIC values at which ≥50% (MIC50) and ≥90% (MIC90) of isolates within a given set are inhibited were determined for each compound against each set of organisms.

[8] = tested on: AG-resistant Enterobacterales; assay: as above
Protocol: as §2, §3, §4

[9] = tested on: AG-resistant P. aeruginosa; assay: as above; settings: Pseudomonas aeruginosa, 50 isolates with defined aminoglycoside resistance
Protocol: as §2, §3, §4

[10] = tested on: Enterobacterales; assay: as above
Protocol: as §2, §3, §4

[11] = tested on: Methicillin-resistant S. aureus (MRSA); assay: as above; settings: Staphylococcus aureus, MRSA, 30 isolates
Protocol: as §2, §3, §4

[12] = tested on: Methicillin-sensitive S. aureus (MSSA); assay: as above; settings: Staphylococcus aureus, MSSA, 20 isolates
Protocol: as §2, §3, §4

[13] = tested on: P. aeruginosa; assay: as above; settings: Pseudomonas aeruginosa, 103 isolates
Protocol: as §2, §3, §4

[14] = tested on: clinical isolates of multi-drug resistant bacterial pathogens including A. baumannii, MRSA, P. aeruginosa, and CRE; assay: MIC secondary panel, overall statement; settings: read-out: minimum inhibitory concentration (MIC) values
Protocol: as §2, §3
Several compounds of the disclosure (Compounds 1, 2, 3, and 6) were further evaluated against a secondary panel of clinical isolates of multi-drug resistant bacterial pathogens including A. baumannii, methicillin-resistant Staphylococcus aureus (MRSA), P. aeruginosa, and carbapenem-resistant Enterobacteriaceae (CRE).

[15] = tested on: all sets of organisms tested (SENTRY clinical isolates); assay: Antibacterial surveillance, overall statement; settings: all sets of organisms tested (Table 3); read-out: MIC50,90 values
Protocol: as §2, §3
as §4, with “The MIC values at which ≥50% (MIC50) and ≥90% (MIC90) of isolates within a given set are inhibited were determined for each compound against each set of organisms.” left out

NC[C@@H]1CC[C@@H](N)[C@@H](O[C@@H]2[C@@H](N)[C@H](O)[C@@H](NC(=O)[C@@H](O)[C@H](F)CN)[C@H](O)[C@H]2O[C@@H]2O[C@H](CO)[C@@H](O[C@H]3O[C@@H](CN)[C@@H](O)[C@H](O)[C@H]3N)[C@H]2O)O1 [Compound 1, (2R,3R)-4-amino-N-((1R,2S,3S,4R,5R,6S)-3-amino-5-(((2S,3R,4S,5R)-4-(((2R,3R,4R,5S,6S)-3-amino-6-(aminomethyl)-4,5-dihydroxytetrahydro-2H-pyran-2-yl)oxy)-3-hydroxy-5-(hydroxymethyl)tetrahydrofuran-2-yl)oxy)-4-(((2R,3R,6S)-3-amino-6-(aminomethyl)tetrahydro-2H-pyran-2-yl)oxy)-2,6-dihydroxycyclohexyl)-3-fluoro-2-hydroxybutanamide]
MIC ([1]; read-out: Activity (MIC), strain NABA0007, ΔadeJK efflux): < 16 µg/mL | MIC ([1]; read-out: Activity (MIC), strain NABA1427, MDR Clinical isolate): < 16 µg/mL | MIC ([1]; read-out: Activity (MIC), strain NABA1433, MDR Clinical isolate): < 16 µg/mL | MIC ([1]; read-out: Activity (MIC), strain NABA1434, MDR Clinical isolate): < 16 µg/mL | MIC ([1]; read-out: Activity (MIC), strain NABA1436, MDR Clinical isolate): < 16 µg/mL | MIC ([1]; read-out: Activity (MIC), strain NABA1437, MDR Clinical isolate): < 16 µg/mL | MIC ([1]; read-out: Activity (MIC), strain NABA1438, MDR Clinical isolate): < 16 µg/mL | MIC ([1]; read-out: Activity (MIC), strain NABA1439, MDR Clinical isolate): < 16 µg/mL | MIC ([1]; read-out: Activity (MIC), strain NABA1448, MDR Clinical isolate): < 16 µg/mL | MIC ([1]; read-out: Activity (MIC), strain NABA1449, MDR Clinical isolate): < 16 µg/mL | MIC ([1]; read-out: Activity (MIC), strain NABA1450, MDR Clinical isolate): < 16 µg/mL | MIC ([1]; strain NABA0006, WT parent, read-out: Activity (MIC)): < 16 µg/mL | MIC ([1]; strain NABA0020, AME negative strain, read-out: Activity (MIC)): < 16 µg/mL | MIC [2]: < 16 µg/mL | MIC ([3]; read-out: Activity (MIC), strain AECO1225, MDR Clinical isolate (CDC CRE panel), CDC AR Bank 0118): < 16 µg/mL | MIC ([3]; read-out: Activity (MIC), strain AECO1226, MDR Clinical isolate (CDC CRE panel), CDC AR Bank 0119): < 16 µg/mL | MIC ([3]; read-out: Activity (MIC), strain AECO1227, MDR Clinical isolate (CDC CRE panel), CDC AR Bank 0128): < 16 µg/mL | MIC ([3]; read-out: Activity (MIC), strain NECO0003, ΔtolC): < 16 µg/mL | MIC ([3]; read-out: Activity (MIC), strain NECO0245, ArmA): < 16 µg/mL | MIC ([3]; strain NECO0001, WT QC, read-out: Activity (MIC)): < 16 µg/mL | MIC ([3]; strain NECO0002, WT, read-out: Activity (MIC)): < 16 µg/mL | MIC ([3]; strain NECO0243, empty vector, read-out: Activity (MIC)): < 16 µg/mL | MIC ([3]; strain NECO0244, AAC(6')-Ib, read-out: Activity (MIC)): < 16 µg/mL | MIC ([3]; strain NECO0289, APH(3')-Ia, read-out: Activity (MIC)): < 16 µg/mL | MIC ([3]; strain NECO0302, AAC(3)-IIa, read-out: Activity (MIC)): < 16 µg/mL | MIC ([3]; strain NECO0350, AAC(2')-I, read-out: Activity (MIC)): < 16 µg/mL | MIC ([3]; strain NECO0359, ANT(4')-Ia, read-out: Activity (MIC)): < 16 µg/mL | MIC ([4]; Klebsiella pneumoniae, strain AKPN1246, MDR Clinical isolate (CDC CRE panel), CDC AR Bank 0139): < 16 µg/mL | Activity (MIC) ([4]; strain AKPN1250, MDR Clinical isolate (CDC CRE panel), CDC AR Bank 0143): + (MIC threshold for positive activity (+) is ≤16 μg/mL) | Activity (MIC) ([4]; strain AKPN1253, MDR Clinical isolate (CDC CRE panel), CDC AR Bank 0148): + (MIC threshold for positive activity (+) is ≤16 μg/mL) | Activity (MIC) ([4]; strain AKPN1255, MDR Clinical isolate (CDC CRE panel), CDC AR Bank 0153): + (MIC threshold for positive activity (+) is ≤16 μg/mL) | MIC ([5]; read-out: Activity (MIC), strain NPAE0006, Efflux KO, Aph(3')-IIb): < 16 µg/mL | MIC ([5]; read-out: Activity (MIC), strain NPAE0010, MexXY over-expressed, Aph(3')-IIb): < 16 µg/mL | MIC ([5]; read-out: Activity (MIC), strain NPAE1288, MDR Clinical isolate): < 16 µg/mL | MIC ([5]; read-out: Activity (MIC), strain NPAE1293, MDR Clinical isolate): < 16 µg/mL | MIC ([5]; read-out: Activity (MIC), strain NPAE1299, MDR Clinical isolate): < 16 µg/mL | MIC ([5]; read-out: Activity (MIC), strain NPAE1302, MDR Clinical isolate): < 16 µg/mL | MIC ([5]; read-out: Activity (MIC), strain NPAE1303, MDR Clinical isolate): < 16 µg/mL | MIC ([5]; read-out: Activity (MIC), strain NPAE1308, MDR Clinical isolate): < 16 µg/mL | MIC ([5]; read-out: Activity (MIC), strain NPAE1310, MDR Clinical isolate): < 16 µg/mL | MIC ([5]; read-out: Activity (MIC), strain NPAE1313, MDR Clinical isolate): > 16 µg/mL | MIC ([5]; read-out: Activity (MIC), strain NPAE1316, MDR Clinical isolate): < 16 µg/mL | MIC ([5]; read-out: Activity (MIC), strain NPAE1323, MDR Clinical isolate): < 16 µg/mL | MIC ([5]; strain NPAE0001, WT Aph(3')-IIb, QC, read-out: Activity (MIC)): < 16 µg/mL | MIC ([5]; strain NPAE0002, WT Aph(3')-IIb, read-out: Activity (MIC)): < 16 µg/mL | MIC ([5]; strain NPAE0359, aph(3')-IIb KO (tetR), read-out: Activity (MIC)): < 16 µg/mL | MIC ([6]; ATCC29213, strain NSAU001, wild-type, QC, ATCC 29213): < 16 µg/mL | MIC ([6]; strain NSAU1004, MDR Clinical isolate): < 16 µg/mL | Activity (MIC) ([6]; strain NSAU1015, MDR Clinical isolate): + (MIC threshold for positive activity (+) is ≤16 μg/mL) | Activity (MIC) ([6]; strain NSAU1023, MDR Clinical isolate): + (MIC threshold for positive activity (+) is ≤16 μg/mL) | Activity (MIC) ([6]; strain NSAU1063, MDR Clinical isolate): + (MIC threshold for positive activity (+) is ≤16 μg/mL) | MIC50 ([7]; read-out: MIC50): < 16 µg/mL | MIC90 ([7]; read-out: MIC90): < 16 µg/mL | MIC50 [8]: < 16 µg/mL | MIC90 [8]: < 16 µg/mL | MIC50 ([9]; read-out: MIC50): < 16 µg/mL | MIC90 ([9]; read-out: MIC90): < 16 µg/mL | MIC50 [10]: < 16 µg/mL | MIC90 [10]: < 16 µg/mL | MIC50 ([11]; read-out: MIC50): < 16 µg/mL | MIC90 ([11]; read-out: MIC90): < 16 µg/mL | MIC50 ([12]; read-out: MIC50): < 16 µg/mL | MIC90 ([12]; read-out: MIC90): < 16 µg/mL | MIC50 ([13]; read-out: MIC50): < 16 µg/mL | MIC90 ([13]; read-out: MIC90): < 16 µg/mL | MIC [14]: ≤ 16 µg/mL | MIC50 [15]: ≤ 16 µg/mL
